Experimental findings from patent publication US12360111B2, “G protein-coupled receptor screening systems” (The University of North Carolina at Chapel Hill, priority 2018, dated 2025) are described below.

“Also recorded” adds a separate entry of the source. Like-named read-outs stand apart in the source and are kept apart here.

The target in assay [1] is T1, KOR, Gαi/o-class TRUPATH sensors (Homo sapiens, UniProt P41145).
T1 construct: expressed in transfected cells
Type of assay: cell-based.

The subject of assay [2] is mu-opioid receptor fused to Gαi1-RLuc8 chimera (MOR-Gi1RLuc). Conditions: for binding to and GPPNHP elution from membranes (in words): unfused MOR vs MOR-Gαi1 membranes.
For assay [3], the target named is T2, mu-opioid receptor unfused (MOR) (Homo sapiens, UniProt P35372).
T2 construct: expressed in transfected cells
Type of assay: binding.

Assay [4] has as its target T3, μ-opioid receptor (MOR) fused to Gαi1 protein (MOR-Gi1) (Homo sapiens, UniProt P35372+P63096).
T3 construct: expressed in transfected cells; host or cells: HEK293 suspension cells, microsomal membranes
Description: ADSoRB screen with radiolabeled agonist tracer at MOR-Gi1 microsomes. Type of assay: binding.

Assay [5] has as its system Gα proteins fused to the μ-opioid receptor (MOR). The experiment in a line: Competition radioligand binding at six Gα proteins fused to MOR.
The subject of a further assay is HEK293 cells. Description: Calcium release in HEK293 cells without serotonin receptors. To be noted: cells do not express serotonin (5-HT) receptors. Type of assay: cell-based.
Assay [6] has as its system 5-HT5A receptor fused to Gi, Gq or Gs. Description: [35S]GTPγS loading at 5-HT5A receptor-Gα fusions. It counts as biochemical. To be noted: Gi vs Gq vs Gs fusions. (GTPγS is a poorly hydrolysed GTP analogue; its binding reports G protein activation.)
The subject of assay [7] is serotonin-5A receptor (HTR5A)-Gαi1 RLuc fusion. Description: Fusion BRET at HTR5A-Gαi1 RLuc. It counts as cell-based.
In a further assay the target is T4, μ-opioid receptor (MOR) (Homo sapiens, UniProt P35372).
T4 construct: expressed in transfected cells
The experiment in a line: TRUPATH after alkylation of MOR with β-FNA (receptor reserve). Type of assay: cell-based. Conditions: increasing β-FNA treatment.

T1 sequence (P41145 whole entry): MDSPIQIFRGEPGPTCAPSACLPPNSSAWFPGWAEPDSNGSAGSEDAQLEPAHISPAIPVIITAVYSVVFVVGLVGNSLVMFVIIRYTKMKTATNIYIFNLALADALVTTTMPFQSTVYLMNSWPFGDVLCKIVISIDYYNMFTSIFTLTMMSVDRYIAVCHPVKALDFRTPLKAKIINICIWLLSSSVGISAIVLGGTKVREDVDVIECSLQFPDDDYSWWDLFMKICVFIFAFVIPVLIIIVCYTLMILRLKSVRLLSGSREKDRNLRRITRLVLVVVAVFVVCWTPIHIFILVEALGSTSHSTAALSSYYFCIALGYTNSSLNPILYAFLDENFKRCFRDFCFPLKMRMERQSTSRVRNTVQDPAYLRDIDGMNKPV
T3 sequence (P35372+P63096 fused): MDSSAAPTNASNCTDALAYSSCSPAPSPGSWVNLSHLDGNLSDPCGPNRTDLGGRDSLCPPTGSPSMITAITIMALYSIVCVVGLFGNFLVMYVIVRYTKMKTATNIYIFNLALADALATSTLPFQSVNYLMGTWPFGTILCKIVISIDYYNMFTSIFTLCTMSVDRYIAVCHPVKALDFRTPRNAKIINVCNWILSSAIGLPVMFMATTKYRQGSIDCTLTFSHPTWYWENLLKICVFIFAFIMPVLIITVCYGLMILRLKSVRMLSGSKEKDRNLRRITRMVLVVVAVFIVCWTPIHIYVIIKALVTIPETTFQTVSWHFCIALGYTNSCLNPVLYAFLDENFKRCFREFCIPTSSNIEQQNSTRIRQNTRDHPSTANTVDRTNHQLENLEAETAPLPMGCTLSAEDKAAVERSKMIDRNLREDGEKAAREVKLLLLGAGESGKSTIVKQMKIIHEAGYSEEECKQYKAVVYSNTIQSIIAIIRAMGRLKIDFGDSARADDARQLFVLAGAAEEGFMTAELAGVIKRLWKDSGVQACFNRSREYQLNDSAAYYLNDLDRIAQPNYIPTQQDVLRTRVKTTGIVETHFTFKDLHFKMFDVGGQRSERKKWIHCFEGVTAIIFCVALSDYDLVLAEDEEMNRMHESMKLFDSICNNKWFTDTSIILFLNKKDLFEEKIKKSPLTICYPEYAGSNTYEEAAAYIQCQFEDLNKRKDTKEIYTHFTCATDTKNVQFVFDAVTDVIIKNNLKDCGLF
T2 sequence (P35372 whole entry, the tested form may be a part): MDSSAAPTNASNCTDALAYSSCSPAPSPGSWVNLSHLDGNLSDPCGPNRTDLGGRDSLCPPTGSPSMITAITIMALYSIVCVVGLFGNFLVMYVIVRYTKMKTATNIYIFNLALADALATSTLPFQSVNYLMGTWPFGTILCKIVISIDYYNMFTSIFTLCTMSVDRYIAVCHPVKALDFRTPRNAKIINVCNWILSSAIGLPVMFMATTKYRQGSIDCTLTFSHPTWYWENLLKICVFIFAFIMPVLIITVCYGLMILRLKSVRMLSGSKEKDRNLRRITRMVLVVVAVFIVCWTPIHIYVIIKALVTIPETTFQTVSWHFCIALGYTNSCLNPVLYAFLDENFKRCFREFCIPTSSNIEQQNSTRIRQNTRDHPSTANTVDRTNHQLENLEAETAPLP
T4 sequence (P35372 whole entry): as the sequence (P35372 whole entry, the tested form may be a part) above

Take `COC(=O)N1CCN(C(=O)Cc2ccc(Cl)c(Cl)c2)C(CN2CCCC2)C1` (centres unmarked) [GR89,696]: in assay [1], the “efficacy across transducers (in words)” value is on record as “activated all transducers with equal efficacy”.

Turning to `C[C@@H](NC(=O)[C@@H](N)Cc1ccc(O)cc1)C(=O)NCC(=O)N(C)[C@@H](Cc1ccccc1)C(=O)NCCO` [[3H]DAMGO], the figures for the unbound tracer in assay [2] (MOR-Gi1RLuc complex) and in assay [3] were 23% and 67%, respectively. Besides, the “elution upon complex dissociation with GPPNHP” value in assay [2] (high affinity MOR-Gi1RLuc complex) was 7 % of total; in assay [3], 0.8 % of total. Moreover, the “binding to and GPPNHP elution from membranes (in words)” value in [2] (listed as [^3H]DAMGO) is given as “binds more strongly to the MOR-Gαi1 complex; also recorded: elutes to a greater extent”. In addition, in assay [4] (GPPNHP elution), the “elution upon complex dissociation/uncoupling with GPPNHP” value is given as 30 % of total agonist added. The “elution with buffer control” value in assay [4] (buffer elution) was 2 % of total agonist added.

`COc1ccsc1CNCC[C@@]1(c2ccccn2)CCOC2(CCCC2)C1` [TRV130]: the “affinity shift vs unfused MOR (in words)” value in assay [5] is on record as “shift compared to unfused MOR”.

With `CCN(CC)C(=O)N[C@H]1C=C2c3cccc4[nH]cc(c34)C[C@H]2N(C)C1` [Lisuride], in the assay with HEK293 cells, the “calcium release (in words)” value is recorded as “do not cause calcium release”.

For `O=C(c1ccccn1)N(Cc1cccs1)C1(C(=O)NC2CCCCC2)CCCCC1` [ML139], the “efficacy across transducers (in words)” value in assay [1] is listed as “activated all transducers with equal efficacy”.

On to `COc1cc(CC(C)N)c(OC)cc1I` (centres unmarked) [DOI], for which the “calcium release (in words)” value in the assay with HEK293 cells is given as “do not cause calcium release”.

Turning to `NCCc1c[nH]c2ccc(O)cc12` [5-HT], in assay [6], the “G protein activation ([35S]GTPγS loading, in words)” value is reported as “only seen at the Gi fusion”. Further, in [7], the “BRET response (in words)” value is “reliable and substantial serotonin response”. Moreover, the “calcium release (in words)” value in the assay with HEK293 cells is “do not cause calcium release”.

For the compound `C[C@@H](NC(=O)[C@@H](N)Cc1ccc(O)cc1)C(=O)NCC(=O)N(C)[C@@H](Cc1ccccc1)C(=O)NCCO` [DAMGO], the “binding to and GPPNHP elution from membranes (in words)” value in assay [2] is “ability to bind and elute”. Besides, the “affinity shift vs unfused MOR (in words)” value in [5] is given as “shift compared to unfused MOR”.

As for `COC(=O)/C=C/C(=O)N[C@@H]1CC[C@@]2(O)[C@H]3Cc4ccc(O)c5c4[C@@]2(CCN3CC2CC2)[C@H]1O5` [β-FNA], on μ-opioid receptor (MOR), the “effect on maximal efficacy (Emax)” value is reported as “strong inhibition of maximal efficacy” and the effect on potency result is “minimal effect on potency”.

As for Leu-enkephalin, the “affinity shift vs unfused MOR (in words)” value in [5] is “shift compared to unfused MOR”.
